Results: patent US20060122267A1, “Compositions and methods for attenuating mitochondria-mediated cell injury” (priority 2003, published 2006)

Experiments:
[1] = system: rat heart mitochondria; assay: Chemiluminescent NO analysis of total S-nitrosothiol in treated mitochondria; type: biochemical
Experimental: At concentrations above 250 μM, secondary reactions such as free S-nitrosothiol or NO2^− formation were observed.
Rat heart mitochondria were isolated using differential centrifugation (Tompkins, et al. (2005) Biochim. Biophys. Acta PMID: 16278076). Protein was determined by the Folin-phenol method (Lowry, et al. (1951) J. Bio. Chem. 193:265-75) against a standard curve constructed using bovine serum albumin. Mitochondrial incubations and all subsequent steps were performed in the dark. One mg of mitochondrial protein was suspended in 1 mL of mitochondrial respiration buffer (Tompkins, et al. (2005) supra) containing respiratory substrates glutamate (5 mM), malate (2.5 mM) and succinate (5 mM). […] Samples were centrifuged (5 minutes, 14,000×g), and supernatants removed. The pellets were then resuspended in 1 mL of respiration buffer, and centrifuged again. Pellets were frozen in liquid N2 for subsequent analysis. For ONOO^− treatments, 4 μL of 25 mM ONOO^− stock (100 μM final concentration) was added the cap of the reaction tube, the cap quickly closed and the tube shaken immediately. The process was then repeated twice at 30 second intervals, for a total of 3 additions. Mitochondria were then pelleted, washed, and frozen as for S-nitrosoglutathione samples. Complex I activity was assayed as the rotenone-sensitive oxidation of NADH, at 340 nm in the presence of coenzyme Q1 (Borutaite, et al. (2000) supra). Complex IV was assayed by monitoring the cyanide-sensitive first-order oxidation of reduced cytochrome c, at 550 nm according to established methods (Cleeter, et al. (1994) supra).
Chemiluminescent analysis of S-nitrosothiol content was performed on samples originating from blue-native gels, intact mitochondria and SUPEROSE™ 6 chromatography fractions, according to known methodologies (Yang, et al. (2003) Free Radic. Res. 37:1-10). […] Each sample was run in duplicate and quantified using a standard curve created with known concentrations of NaNO2.

[2] = molecular target: T1, 75 kDa subunit of complex I (Rattus norvegicus, UniProt Q66HF1); assay: SUPEROSE 6 chromatography S-nitrosothiol profile with biotin switch identification of S-nitrosated peptide; type: biochemical; conditions: S-nitrosoglutathione-treated mitochondria
T1 construct: Mitochondrial protein (3 mg) was extracted in 300 μL of column running buffer; from tissue; host or cells: rat heart mitochondria, SUPEROSE 6 column fraction enriched in complex I
From the text: To simplify separation of complex I, SUPEROSE™ 6 gel filtration chromatography was employed as a liquid phase high-throughput separation method (Danial, et al. (2003) Nature 424:952-6). Chemiluminescent analysis of column fractions was then used to construct an S-nitrosothiol profile. Most S-nitrosothiol concentrated in two regions of the chromatogram, eluting at ˜35% and 85% of the column bed volume.
The fraction with most S-nitrosothiol content was enriched in complex I activity, and was then further analyzed by biotin switch assay to identify S-nitrosated peptides (i.e., which of the 46 subunits in complex I was S-nitrosated). […]
A 25 cm×1 cm BIO-RAD® glass ECONO-COLUMN™ was used, with appropriate flow adaptor (BIO-RAD®, Hercules Calif.) and a MASTERFLEX™ peristaltic pump (Cole Parmer, Vernon Hills, Ill.). […] Fractions (200 μL) were collected, and their A280 measured to determine relative protein content. In addition, the S-nitrosothiol content and complex I activity of each fraction were analyzed as disclosed herein. […] Therefore, for data comparison the relative position of eluted column fractions was expressed as a percentage of the total column bed volume. […]
For biotin-switch analysis, intact mitochondrial pellets (1 mg protein solubilized in extraction buffer) or chromatography column fractions were analyzed in accordance with known methods (Jaffrey & Snyder (2001) supra). […]

[3] = system: isolated adult rat cardiomyocytes; assay: Mitochondrial H+ leak in cardiomyocytes (respiration divided by TMRE fluorescence) after ischemia-reperfusion; type: cell-based; conditions: doses that protect cardiomyocyte viability
Experimental: Cardiomyocyte respiration rate was measured with an oxygen electrode, and membrane potential with the fluorescent dye TMRE (20 nM) in a fluorimeter. H^+ leak is essentially the amount of work the respiratory chain must do to maintain a given membrane potential, and experimentally is derived by dividing respiration by TMRE fluoresence. […] All data are means±SEM, N>3.
Adult rat cardiomyocytes were prepared by collagenase perfusion according to standard methods (Dai, et al. (2001) supra), yielding ˜4×10^6 cells per heart, >80% rod-shaped and viable. Incubations were in a shaking water bath at 37° C., each utilizing 5×10^5 cells in 5 mL of the KH buffers described below. For the control, cells were incubated for 2 hours in oxygenated KH buffer (95/5 O2/CO2). For ischemia-reperfusion treatment, cells were subjected to 30 minutes in oxygenated KH buffer, 1 hour in “ischemic” KH buffer (95/5 N2/CO2, pH 6.5, no glucose), and 30 minutes in oxygenated KH buffer. […] At the end of each protocol, cell viability was assayed (Trypan blue), and mitochondrial function determined (measurement of ΔΨm with the fluorescent probe TMRE, respiration with an O2 electrode, and S-nitrosothiol content by chemiluminescence and biotin-switch.

T1 sequence (Q66HF1 24-727, one chain of several): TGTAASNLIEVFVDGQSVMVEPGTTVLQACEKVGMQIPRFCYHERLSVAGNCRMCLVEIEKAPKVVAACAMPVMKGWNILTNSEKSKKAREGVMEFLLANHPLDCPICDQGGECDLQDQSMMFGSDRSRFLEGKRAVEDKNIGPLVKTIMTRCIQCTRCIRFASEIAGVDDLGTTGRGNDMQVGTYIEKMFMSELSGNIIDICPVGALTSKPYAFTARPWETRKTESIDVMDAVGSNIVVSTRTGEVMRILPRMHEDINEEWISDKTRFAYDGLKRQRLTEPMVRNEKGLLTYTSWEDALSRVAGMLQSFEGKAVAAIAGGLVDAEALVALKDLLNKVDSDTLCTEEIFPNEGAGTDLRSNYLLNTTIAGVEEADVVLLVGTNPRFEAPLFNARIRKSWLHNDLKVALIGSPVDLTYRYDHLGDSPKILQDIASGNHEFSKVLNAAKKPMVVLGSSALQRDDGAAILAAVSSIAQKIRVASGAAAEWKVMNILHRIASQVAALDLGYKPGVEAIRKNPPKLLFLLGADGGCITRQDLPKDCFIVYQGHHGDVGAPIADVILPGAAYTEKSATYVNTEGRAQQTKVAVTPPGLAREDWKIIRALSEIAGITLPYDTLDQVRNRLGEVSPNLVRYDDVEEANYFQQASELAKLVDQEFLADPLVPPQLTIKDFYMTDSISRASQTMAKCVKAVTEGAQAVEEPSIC

Structure (SMILES): N[C@@H](CCC(=O)N[C@@H](CSN=O)C(=O)NCC(=O)O)C(=O)O [S-nitrosoglutathione]
- concentration above which secondary reactions (free S-nitrosothiol or NO2- formation) were observed [1]: above 250 μM
- total S-nitrosothiol ([1]; 100 μM treatment): ~1700 pmol/mg mitochondrial protein
- concentration approaching saturation of total S-nitrosothiol (free plus protein-bound) ([1]; range 10 μM to 1 mM): ~300 µM
- share of total protein-bound S-nitrosothiol contained in the 75 kDa subunit of complex I [2]: ~20%
- effect on increase in mitochondrial H+ leak induced by ischemia-reperfusion [3]: prevent large increases in H^+ leak
